We go through one compound from patent publication US20180071354A1, “SELECTIVE BREEDING METHOD OF ANTITUMOR/ANTICANCER CAMELLIA SINENSIS STRAIN, AND TEA PRODUCT OF SUCH STRAIN” (FUJIAN AGRICULTURE AND FORESTRY UNIVERSITY, priority 2015, published 2018).

The structures appear in SMILES notation.

The subject of experiment [1] is human ovarian cancer cell line SK-OV-3. Kind of experiment: In vitro antitumor/anticancer testing (CCK-8), SK-OV-3. The class given is cell-based. Particulars: 48 h. How it is done:
(§1) Each of Tea Product 1 and Conventional Tea Product obtained in section A of this example was used to prepare test tea samples according to the method described below. A proper amount of the respective tea product was added into sterile water to prepare a stock solution with a concentration of 100 mg/mL, followed by using a membrane filter with a pore size of 0.22 μm to conduct vacuum filtration and sterilization. The resulting stock solution was diluted with a respective complete medium shown in Table 3 below to form test tea samples with different concentrations. In other words, the thus obtained test tea samples to be used for treating a respective cancer/tumor cell line shown in Table 3 were prepared using the same complete medium as that for the respective cancer/tumor cell line. […] Specifically, each of the aforesaid commercially available agents was subjected to the method described below to prepare comparative test samples. A proper amount of a respective commercially available agent was dissolved in phosphate-buffered saline (PBS) to prepare a stock solution with a concentration of 5 mg/mL, followed by using a membrane filter with a pore size of 0.22 μm to conduct vacuum filtration and sterilization. The resulting stock solution was diluted with a respective complete medium shown in Table 3 below to form comparative test samples with different concentrations. To be specific, the comparative test samples prepared from the respective commercially available agent have the concentrations shown in Table 2 below. The thus obtained comparative test samples to be used for treating a respective cancer/tumor cell line shown in Table 3 were prepared using the same complete medium as that for the respective cancer/tumor cell line. […] The cultivation of each cancer/tumor cell line is described as follows. […] Afterwards, a cell suspension having a cell density of 1.0×10^4 cells/mL was prepared. […] As experimental groups, the tumor/cancer cells of each cell line were treated with the test tea samples prepared from one or more of the tea products and the comparative test samples prepared from one or more of the commercially available agents as obtained in section B of this example (for more detailed information about the tea product(s) and the commercially available product (s) used to treat each cell line, please see Table 4 below). To be specific, 6 to 10 test tea samples prepared from the same tea product and having different concentrations, as well as 6 to 10 comparative test samples prepared from the same commercially available agent and having different concentrations, were utilized to treat the tumor/cancer cells of each cell line. For each experimental group, 6 repetitions of tumor/cancer treatment were performed. For the control group, 100 μL of PBS was added to a well containing the medium and the cancer/tumor cells of the respective cell line. For the blank group, 100 μL of PBS was added to a well containing a complete medium the same as that used for cultivation of the cancer/tumor cells of the respective cell line. After the treatment described above, cultivation was conducted in an incubator (37° C., 100% relative humidity, 5% CO2) for 48 hours. Subsequently, the liquid containing the medium and the sample in the well was removed, and a respective complete medium (shown in Table 3 above) containing 10% CCK-8 (Cell Counting Kit-8)(Dojindo Molecular Technologies, Inc., Cat. No. CK04-13) was added. Cultivation was performed in an incubator (37° C.) for 2 to 4 hours, followed by gently shaking.

Experiment [2] is described as follows: In vitro antitumor/anticancer testing (CCK-8), SMMC-7721. The class given is cell-based, human. Particulars: SMMC-7721; 48 h. On the procedure:
as §1

In experiment [3] the test system is human mammary gland/duct cancer cell line BT-474. Kind of experiment: In vitro antitumor/anticancer testing (CCK-8), BT-474. Type of experiment: cell-based. Particulars: 48 h. How it is done: as §1

As to `O=C(O[C@@H]1Cc2c(O)cc(O)cc2O[C@@H]1c1cc(O)c(O)c(O)c1)c1cc(O)c(O)c(O)c1` [EGCG monomer, epigallocatechin gallate], the Percent growth inhibition is recorded as 2.20% in experiment [1] (0.3125 μg/mL); 3.98% in experiment [1] (0.625 μg/mL); 3.64% in experiment [1] (1.25 μg/mL); 5.54% in experiment [1] (2.5 μg/mL); 6.15% in experiment [1] (5 μg/mL); 4.47% in experiment [1] (10 μg/mL). Further, the Percent growth inhibition is 36.88% in experiment [1] (20 μg/mL); 81.73% in experiment [1] (40 μg/mL); 99.42% in experiment [1] (80 μg/mL); 6.51% in experiment [3] (2.5 μg/mL); 2.62% in experiment [3] (5 μg/mL); −2.75% in experiment [3] (10 μg/mL). In addition, the Percent growth inhibition in experiment [3] (20 μg/mL) was −6.45%; in experiment [3] (40 μg/mL), −20.61%; in experiment [3] (80 μg/mL) it was 57.40%; in experiment [3] (160 μg/mL) it was 96.45%; in experiment [3] (320 μg/mL) it was 97.46%; in experiment [3] (640 μg/mL), 97.03%. Further, the IC50 result is “IC50 (μg/mL) = 24.05” in experiment [1] (SK-OV-3), “IC50 (μg/mL) = 77.41” in experiment [2] and “IC50 (μg/mL) = 74.75” in experiment [3] (BT-474).
